In US11976059B2 (KOREA RESEARCH INSTITUTE OF CHEMICAL TECHNOLOGY, priority 2018, dated 2024):

What follows are compounds tested against EGFR L858R/T790M/C797S mutant enzyme (Homo sapiens (Human), UniProt P00533, C797S/L858R/T790M) (assay: EGFR mutant enzyme inhibition, HTRF system (Cisbio)). Settings: ATP 1 mM, 37° C. for 2 hours.
Assay type: biochemical
Method: In order to evaluate the inhibitory activity of the compound represented by formula 1 according to the present invention against EGFR mutation, the following experiment was performed.
The activity of the compound of the present invention against EGFR mutant enzyme was measured using the HTRF system of Cisbio Co. As an EGFR L858R/T790M/C797S mutant enzyme, a protein provided by SignalChem was purchased and used as an enzyme source.
The composition of the assay buffer used for the activity measurement was as follows: 50 mM Tris-HCl (pH 7.5), 100 mM NaCl, 7.5 mM MgCl2, 3 mM KCl, 0.01% Tween 20, 0.1% BSA, and 1 mM DTT. Herein, an enzyme reaction was performed using a peptide substrate labeled with ATP at the concentration of 1 mM and biotin at the concentration of 0.5 μM. The analysis of the EGFR activity inhibitory effect of the compound was performed according to the following analytical reaction recipe.
Component 1: 4 μl of EGFR mutant enzyme
Component 2: 2 μl of compound solution
Component 3: 4 μl of ATP and biotin-labeled peptide mixture
The enzyme reaction was initiated by mixing the component 1 and the component 2 first and then adding the component 3 thereto. After reacting the mixture at 37° C. for 2 hours, 10 μl of a measurement solution consisting of streptavidin-XL665 and europium-labeled anti-phosphotyrosine antibody provided by Cisbio was added to the enzyme reaction solution, followed by reaction at room temperature for 1 hour. Finally, the ratio of the fluorescence values at 615 nm and 665 nm was calculated using Envision equipment of Perkin-Elmer to quantitatively measure the enzyme activity and confirm the inhibitory ability of the compound. The values measured at 7 concentrations of the compound were analyzed using Prism program (version 5.01, Graphpad Software, Inc.), and the IC50 value, an index of the inhibitory ability of the compound, was calculated.

Chain of EGFR L858R/T790M/C797S mutant enzyme (P00533 25-1210 T790M/C797S/L858R): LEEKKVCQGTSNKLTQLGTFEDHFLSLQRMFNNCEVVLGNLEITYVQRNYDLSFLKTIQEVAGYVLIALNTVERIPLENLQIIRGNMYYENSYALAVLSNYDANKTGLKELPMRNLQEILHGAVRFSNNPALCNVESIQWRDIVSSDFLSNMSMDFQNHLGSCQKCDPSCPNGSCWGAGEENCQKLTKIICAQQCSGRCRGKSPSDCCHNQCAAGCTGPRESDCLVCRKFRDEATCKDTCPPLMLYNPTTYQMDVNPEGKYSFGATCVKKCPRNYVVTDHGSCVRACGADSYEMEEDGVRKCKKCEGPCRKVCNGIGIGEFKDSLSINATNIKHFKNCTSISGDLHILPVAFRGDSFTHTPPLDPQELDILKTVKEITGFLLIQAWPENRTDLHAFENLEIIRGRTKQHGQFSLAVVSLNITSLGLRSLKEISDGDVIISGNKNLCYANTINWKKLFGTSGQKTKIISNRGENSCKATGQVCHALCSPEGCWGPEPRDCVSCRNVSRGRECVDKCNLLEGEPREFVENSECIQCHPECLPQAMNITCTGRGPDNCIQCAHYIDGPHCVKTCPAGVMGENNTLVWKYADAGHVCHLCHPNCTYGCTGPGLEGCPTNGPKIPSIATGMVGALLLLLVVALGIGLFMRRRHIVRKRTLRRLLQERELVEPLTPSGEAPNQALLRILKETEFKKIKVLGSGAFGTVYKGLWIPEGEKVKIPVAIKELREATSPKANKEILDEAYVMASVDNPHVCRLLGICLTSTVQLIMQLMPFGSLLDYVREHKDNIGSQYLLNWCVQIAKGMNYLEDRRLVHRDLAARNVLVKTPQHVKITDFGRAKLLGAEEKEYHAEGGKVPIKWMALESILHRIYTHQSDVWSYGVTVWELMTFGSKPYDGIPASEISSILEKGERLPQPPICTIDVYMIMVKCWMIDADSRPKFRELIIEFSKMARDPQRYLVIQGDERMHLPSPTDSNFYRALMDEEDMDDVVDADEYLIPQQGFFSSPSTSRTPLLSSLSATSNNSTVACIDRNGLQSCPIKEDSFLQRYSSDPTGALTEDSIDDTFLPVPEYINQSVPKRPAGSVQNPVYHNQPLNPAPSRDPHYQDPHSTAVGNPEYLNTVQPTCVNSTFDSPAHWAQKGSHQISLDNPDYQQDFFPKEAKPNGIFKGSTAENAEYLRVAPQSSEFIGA

| Compound | IC50 |
| --- | --- |
| O=C1c2ccccc2CN1[C@@H](c1cc2ccccc2[nH]1)c1cc(Cl)ccc1O [Example 26, (R)-2-((5-chloro-2-hydroxyphenyl)(1H-indole-2-yl)methyl)isoindolin-1-one] | 190 nM |
| O=C1c2ccccc2CN1[C@@H](c1cc2ccccc2[nH]1)c1cc(F)ccc1O [Example 23, (R)-2-((5-fluoro-2-hydroxyphenyl)(1H-indole-2-yl)methyl)isoindolin-1-one] | 2400 nM |
| CN1CCC(N2CCN(c3ccc(-c4ccc5c(c4)C(=O)N([C@@H](c4cc6ccccc6[nH]4)c4cc(F)ccc4O)C5)cc3)CC2)CC1 [Example 65, (R)-2-((5-fluoro-2-hydroxyphenyl)(1H-indole-2-yl)methyl)-6-(4-(4-(1-methylpiperidine-4-yl)piperazine-1-yl)phenyl)isoindolin-1-one] | 50 nM |
| CN(C)C1CCN(c2ccc(-c3ccc4c(c3)C(=O)N([C@@H](c3cc5ccccc5[nH]3)c3cc(Cl)ccc3O)C4)cc2)CC1 [Example 62, (R)-2-((5-chloro-2-hydroxyphenyl)(1H-indole-2-yl)methyl)-6-(4-(4-(dimethylamino)piperidine-1-yl)phenyl)-isoindolin-1-one] | 2200 nM |
| O=C1c2cc(-c3ccc(-c4ccncc4)cc3)ccc2CN1C(c1nc2ccccc2[nH]1)c1cc(Cl)ccc1O (centres unmarked) [Example 42, 2-((1H-benzo[d]imidazole-2-yl)(5-chloro-2-hydroxyphenyl)methyl)-6-(4-(pyridine-4-yl)phenyl)isoindolin-1-one] | 450 nM |
| O=C1c2ccccc2CN1C(c1nc2ccc(F)cc2[nH]1)c1ccccc1O (centres unmarked) [Example 2, 2-((6-fluoro-1H-benzo[d]imidazole-2-yl)(2-hydroxyphenyl)methyl)isoindolin-1-one] | 2200 nM |
| O=C1c2ccccc2CN1C(c1nc2ccccc2[nH]1)c1cc(F)ccc1O (centres unmarked) [Example 7, 2-((1H-benzo[d]imidazole-2-yl)(5-fluoro-2-hydroxyphenyl)methyl)isoindolin-1-one] | 700 nM |
| O=C1c2cc(C3=CCNCC3)ccc2CN1C(c1nc2ccccc2[nH]1)c1ccccc1O (centres unmarked) [Example 15, 2-((1H-benzo[d]imidazole-2-yl)(2-hydroxyphenyl)methyl)-6-(1,2,3,6-tetrahydropyridine-4-yl)isoindolin-1-one] | 8800 nM |
| O=C1c2cc(C3=CCNCC3)ccc2CN1[C@@H](c1cc2ccccc2[nH]1)c1ccccc1O [Example 34, (R)-2-((2-hydroxyphenyl)(1H-indole-2-yl)methyl)-6-(1,2,3,6-tetrahydropyridine-4-yl)isoindolin-1-one] | 2900 nM |
| Nc1ccc(-c2ccc3c(c2)C(=O)N(C(c2nc4ccccc4[nH]2)c2cc(Cl)ccc2O)C3)cc1 (centres unmarked) [Example 14, 2-((1H-benzo[d]imidazole-2-yl)(5-chloro-2-hydroxyphenyl)methyl)-6-(4-aminophenyl)isoindolin-1-one] | 1300 nM |
| N[C@@H]1CCN(c2ccc(-c3ccc4c(c3)C(=O)N([C@@H](c3cc5ccccc5[nH]3)c3cc(F)ccc3O)C4)cc2)C1 [Example 69, 6-(4-((R)-3-aminopyrrolidine-1-yl)phenyl)-2-((R)-(5-fluoro-2-hydroxyphenyl)(1H-indole-2-yl)methyl)isoindolin-1-one] | 56 nM |
| O=C1c2cc(-c3ccc(N4CCCC4)cc3)ccc2CN1[C@@H](c1cc2ccccc2[nH]1)c1cc(Cl)ccc1O [Example 68, (R)-2-((5-chloro-2-hydroxyphenyl)(1H-indole-2-yl)methyl)-6-(4-(pyrrolidine-1-yl)phenyl)isoindolin-1-one] | 250 nM |
| Nc1ccc(-c2ccc3c(c2)C(=O)N([C@@H](c2cc4ccccc4[nH]2)c2ccccc2O)C3)cc1 [Example 28, (R)-6-(4-aminophenyl)-2-((2-hydroxyphenyl)(1H-indole-2-yl)methyl)isoindolin-1-one] | 160 nM |
| CN1CCN(C2CCN(c3ccc(-c4ccc5c(c4)C(=O)N([C@@H](c4cc6ccccc6[nH]4)c4cc(F)ccc4O)C5)cc3)CC2)CC1 [Example 57, (R)-2-((5-fluoro-2-hydroxyphenyl)(1H-indole-2-yl)methyl)-6-(4-(4-(4-methylpiperazine-1-yl)piperidine-1-yl)phenyl)isoindolin-1-one] | 40 nM |
| O=C1c2cc(-c3ccc(N4CCNCC4)cc3)ccc2CN1[C@@H](c1cc2cccnc2[nH]1)c1cc(F)ccc1O [Example 49, (R)-2-((5-fluoro-2-hydroxyphenyl)(1H-pyrrolo[2,3-b]pyridine-2-yl)methyl)-6-(4-(piperazine-4-yl)phenyl)isoindolin-1-one] | 69 nM |
| CN1CCN(C2CCN(c3ccc(-c4ccc5c(c4)C(=O)N([C@@H](c4cc6ccccc6[nH]4)c4cc(Cl)ccc4O)C5)cc3)CC2)CC1 [Example 58, (R)-2-((5-chloro-2-hydroxyphenyl)(1H-indole-2-yl)methyl)-6-(4-(4-(4-methylpiperazine-1-yl)piperidine-1-yl)phenyl)isoindolin-1-one] | 3700 nM |
| N[C@H]1CCN(c2ccc(-c3ccc4c(c3)C(=O)N([C@@H](c3cc5ccccc5[nH]3)c3cc(F)ccc3O)C4)cc2)C1 [Example 71, 6-(4-((S)-3-aminopyrrolidine-1-yl)phenyl)-2-((R)-(5-fluoro-2-hydroxyphenyl)(1H-indole-2-yl)methyl)isoindolin-1-one] | 45 nM |
| O=C1c2cc(-c3ccc(N4CCNCC4)cc3)ccc2CN1[C@H](c1cc2ccccc2[nH]1)c1cc(F)ccc1O [Example 53, (S)-2-((5-fluoro-2-hydroxyphenyl)(1H-indole-2-yl)methyl)-6-(4-(piperazine-1-yl)phenyl)isoindolin-1-one] | 120 nM |
| O=C1c2cc(-c3ccc(N4CCNCC4)cc3)ccc2CN1[C@@H](c1cc2ccccc2[nH]1)c1ccccc1O [Example 31, (R)-2-((2-hydroxyphenyl)(1H-indole-2-yl)methyl)-6-(4-(piperazine-1-yl)phenyl)isoindolin-1-one] | 18 nM |
| O=C1c2cc(C3=CCNCC3)ccc2CN1[C@@H](c1cc2ccccc2[nH]1)c1cc(Cl)ccc1O [Example 36, (R)-2-((5-chloro-2-hydroxyphenyl)(1H-indole-2-yl)methyl)-6-(1,2,3,6-tetrahydropyridine-4-yl)isoindolin-1-one] | 2400 nM |
| O=C1c2cc(-c3ccc(N4CCC(N5CCNCC5)CC4)cc3)ccc2CN1[C@@H](c1cc2ccccc2[nH]1)c1cc(F)ccc1O [Example 59, (R)-2-((5-fluoro-2-hydroxyphenyl)(1H-indole-2-yl)methyl)-6-(4-(4-(piperazine-1-yl)piperidine-1-yl)phenyl)isoindolin-1-one] | 32 nM |
| O=C1c2cc(-c3ccc(N4CCNCC4)cc3)ccc2CN1C(c1nc2ccccc2[nH]1)c1cc(Cl)ccc1O (centres unmarked) [Example 11, 2-((1H-benzo[d]imidazole-2-yl)(5-chloro-2-hydroxyphenyl)methyl)-6-(4-(piperazine-1-yl)phenyl)isoindolin-1-one] | 150 nM |
| O=C1c2ccccc2CN1C(c1nc2ccccc2[nH]1)c1cc(Cl)ccc1O (centres unmarked) [Example 8, 2-((1H-benzo[d]imidazole-2-yl)(5-chloro-2-hydroxyphenyl)methyl)isoindolin-1-one] | 170 nM |
| O=C1c2cc(-c3ccc(N4CCN(C5CCNCC5)CC4)cc3)ccc2CN1[C@@H](c1cc2ccccc2[nH]1)c1cc(F)ccc1O [Example 63, (R)-2-((5-fluoro-2-hydroxyphenyl)(1H-indole-2-yl)methyl)-6-(4-(4-(piperidine-4-yl)piperazine-1-yl)phenyl)isoindolin-1-one] | 300 nM |
| Nc1ccc(-c2ccc3c(c2)C(=O)N([C@@H](c2cc4ccccc4[nH]2)c2cc(Cl)ccc2O)C3)cc1 [Example 30, (R)-6-(4-aminophenyl)-2-((5-chloro-2-hydroxyphenyl)(1H-indole-2-yl)methyl)isoindolin-1-one] | 120 nM |
| Nc1ccc(-c2ccc3c(c2)C(=O)N(C(c2nc4ccccc4[nH]2)c2ccccc2O)C3)cc1 (centres unmarked) [Example 12, 2-((1H-benzo[d]imidazole-2-yl)(2-hydroxyphenyl)methyl)-6-(4-aminophenyl)isoindolin-1-one] | 500 nM |
| O=C1c2cc(-c3ccc(N4CCOCC4)cc3)ccc2CN1[C@@H](c1cc2ccccc2[nH]1)c1cc(F)ccc1O [Example 45, (R)-2-((5-fluoro-2-hydroxyphenyl)(1H-indole-2-yl)methyl)-6-(4-morpholinophenyl)isoindolin-1-one] | 280 nM |
| O=C1c2ccccc2CN1C(c1nc2ccc(Cl)cc2[nH]1)c1ccccc1O (centres unmarked) [Example 4, 2-((6-chloro-1H-benzo[d]imidazole-2-yl)(2-hydroxyphenyl)methyl)isoindolin-1-one] | 4400 nM |
| O=C1c2cc(-c3ccc(N4CCC(N5CCNCC5)CC4)cc3)ccc2CN1[C@@H](c1cc2ccccc2[nH]1)c1cc(Cl)ccc1O [Example 60, (R)-2-((5-chloro-2-hydroxyphenyl)(1H-indole-2-yl)methyl)-6-(4-(4-(piperazine-1-yl)piperidine-1-yl)phenyl)isoindolin-1-one] | 190 nM |
